How the values were obtained:
[1] = target: T1, Tyrosine-protein phosphatase non-receptor type 1 (Rattus norvegicus) (UniProt P20417); assay: Percent inhibition of Protein-tyrosine phosphatase 1 (PTP) assayed at 100 uM
T1 sequence (whole entry): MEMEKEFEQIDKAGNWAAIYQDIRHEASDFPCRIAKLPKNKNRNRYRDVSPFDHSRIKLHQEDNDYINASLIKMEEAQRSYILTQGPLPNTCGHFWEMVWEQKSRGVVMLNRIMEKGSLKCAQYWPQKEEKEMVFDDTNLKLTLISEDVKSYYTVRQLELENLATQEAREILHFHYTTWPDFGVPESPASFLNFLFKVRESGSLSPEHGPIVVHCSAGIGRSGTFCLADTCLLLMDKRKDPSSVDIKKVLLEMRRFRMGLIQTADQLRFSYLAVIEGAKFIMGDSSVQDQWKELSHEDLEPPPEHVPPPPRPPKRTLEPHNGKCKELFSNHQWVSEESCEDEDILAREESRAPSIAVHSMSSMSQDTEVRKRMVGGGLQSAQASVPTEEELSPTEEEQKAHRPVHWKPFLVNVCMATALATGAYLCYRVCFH

[2] = target: Receptor-type tyrosine-protein phosphatase F (Homo sapiens) (UniProt P10586); assay: Percent inhibition of Protein-tyrosine phosphatase Lar assayed at 100 uM
Receptor-type tyrosine-protein phosphatase F (Homo sapiens), sequence (P10586 whole entry, the tested form may be a part): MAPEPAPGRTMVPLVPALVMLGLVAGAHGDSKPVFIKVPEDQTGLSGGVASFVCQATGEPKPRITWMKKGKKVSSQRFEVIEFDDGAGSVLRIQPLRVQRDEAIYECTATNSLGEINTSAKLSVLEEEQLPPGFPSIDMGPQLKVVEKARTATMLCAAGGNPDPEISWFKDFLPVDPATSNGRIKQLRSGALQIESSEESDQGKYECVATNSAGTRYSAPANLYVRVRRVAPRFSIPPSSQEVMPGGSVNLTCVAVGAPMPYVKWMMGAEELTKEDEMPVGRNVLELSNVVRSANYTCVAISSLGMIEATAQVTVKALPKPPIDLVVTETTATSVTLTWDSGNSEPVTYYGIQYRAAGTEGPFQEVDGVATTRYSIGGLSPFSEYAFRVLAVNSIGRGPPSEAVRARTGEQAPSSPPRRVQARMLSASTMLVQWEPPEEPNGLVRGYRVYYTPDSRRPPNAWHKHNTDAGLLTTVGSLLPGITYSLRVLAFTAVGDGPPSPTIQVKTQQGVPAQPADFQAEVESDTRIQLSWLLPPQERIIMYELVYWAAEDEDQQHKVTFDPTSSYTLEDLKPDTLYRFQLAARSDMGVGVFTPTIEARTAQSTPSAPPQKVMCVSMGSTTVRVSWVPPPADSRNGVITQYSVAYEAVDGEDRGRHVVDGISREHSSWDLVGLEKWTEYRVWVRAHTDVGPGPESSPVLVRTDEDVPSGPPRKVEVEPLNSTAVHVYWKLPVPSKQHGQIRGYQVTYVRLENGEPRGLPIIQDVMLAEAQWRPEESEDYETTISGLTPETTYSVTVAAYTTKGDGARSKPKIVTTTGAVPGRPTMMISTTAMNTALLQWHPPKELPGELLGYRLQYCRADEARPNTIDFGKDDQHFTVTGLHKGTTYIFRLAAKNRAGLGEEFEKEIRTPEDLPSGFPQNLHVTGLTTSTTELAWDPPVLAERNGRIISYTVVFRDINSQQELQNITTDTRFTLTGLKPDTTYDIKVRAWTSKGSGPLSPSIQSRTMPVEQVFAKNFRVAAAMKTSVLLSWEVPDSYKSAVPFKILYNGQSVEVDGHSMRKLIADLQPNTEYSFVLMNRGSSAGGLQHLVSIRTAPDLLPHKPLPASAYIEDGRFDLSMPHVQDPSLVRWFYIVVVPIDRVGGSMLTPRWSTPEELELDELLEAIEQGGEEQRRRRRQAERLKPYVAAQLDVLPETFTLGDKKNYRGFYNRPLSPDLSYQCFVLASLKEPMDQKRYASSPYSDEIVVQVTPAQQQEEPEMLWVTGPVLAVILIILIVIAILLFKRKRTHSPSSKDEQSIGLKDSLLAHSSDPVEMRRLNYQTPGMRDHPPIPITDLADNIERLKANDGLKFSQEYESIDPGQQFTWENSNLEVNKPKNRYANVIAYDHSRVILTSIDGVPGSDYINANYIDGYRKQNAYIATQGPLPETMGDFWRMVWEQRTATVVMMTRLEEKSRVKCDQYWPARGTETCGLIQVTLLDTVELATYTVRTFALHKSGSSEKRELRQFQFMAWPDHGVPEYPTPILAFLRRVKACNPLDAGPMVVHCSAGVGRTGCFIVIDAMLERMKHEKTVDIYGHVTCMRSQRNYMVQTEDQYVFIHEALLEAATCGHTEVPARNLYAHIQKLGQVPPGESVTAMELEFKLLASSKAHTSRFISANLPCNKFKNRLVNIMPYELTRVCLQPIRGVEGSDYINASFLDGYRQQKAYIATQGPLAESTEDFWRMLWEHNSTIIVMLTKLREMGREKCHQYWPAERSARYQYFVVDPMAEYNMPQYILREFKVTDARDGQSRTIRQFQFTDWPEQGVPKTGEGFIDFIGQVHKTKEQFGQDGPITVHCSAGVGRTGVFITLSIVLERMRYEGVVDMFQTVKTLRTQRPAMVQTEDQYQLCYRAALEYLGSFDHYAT

[3] = target: T2, Tyrosine-protein phosphatase non-receptor type 11 (Mus musculus) (UniProt P35235); assay: Percent inhibition of Tyrosine phosphatase SHP2 SH2 domain containing PTP involved in insulin uM; parameters: concentration or dose not given beside the values; settings: concentration not given here
T2 sequence (whole entry): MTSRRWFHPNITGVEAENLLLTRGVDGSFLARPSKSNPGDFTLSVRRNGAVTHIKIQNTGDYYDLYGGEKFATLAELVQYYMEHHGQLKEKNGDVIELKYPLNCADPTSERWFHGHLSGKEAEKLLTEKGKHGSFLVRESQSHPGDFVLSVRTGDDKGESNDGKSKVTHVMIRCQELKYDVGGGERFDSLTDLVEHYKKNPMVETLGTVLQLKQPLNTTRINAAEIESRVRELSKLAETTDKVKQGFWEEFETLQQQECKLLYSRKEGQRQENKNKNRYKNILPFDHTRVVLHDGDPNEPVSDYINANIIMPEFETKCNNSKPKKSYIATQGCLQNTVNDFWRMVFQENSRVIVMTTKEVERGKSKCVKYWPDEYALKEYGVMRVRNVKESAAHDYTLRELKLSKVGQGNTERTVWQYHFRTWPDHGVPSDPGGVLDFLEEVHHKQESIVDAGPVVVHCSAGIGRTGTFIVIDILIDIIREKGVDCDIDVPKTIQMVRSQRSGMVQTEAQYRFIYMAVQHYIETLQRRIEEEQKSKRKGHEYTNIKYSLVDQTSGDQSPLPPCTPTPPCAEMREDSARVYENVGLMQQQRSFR

SMILES	inhibition [1] [%]	inhibition [2] [%]	inhibition [3] [%]
CCCCCNC(=O)C(Cc1ccc(OS(C)(=O)=O)cc1)NC(=O)CCC(=O)O (stereo not given)	0	–	–
CCCCCNC(=O)C(Cc1ccc(OC(C(=O)O)C(=O)O)cc1)NC(=O)C1C2CCC(C2)[C@@H]1C(=O)O (stereo not given in full)	37	8	5
O=C(O)CCC(=O)NC(Cc1ccc(OC(C(=O)O)C(=O)O)cc1)C(=O)NCCCN1CCOCC1 (stereo not given)	35	0	2
CCCCCNC(=O)C(Cc1ccc(OS(=O)(=O)C(F)(F)F)cc1)NC(=O)CCC(=O)O (stereo not given)	0	–	–
CCCCCNC(=O)C(Cc1ccc(OC(C(=O)O)C(=O)O)cc1)NC(=O)[C@H](CC(=O)O)NC(=O)CCCCC (stereo not given in full)	91	10	37
CCCCCNC(=O)C(Cc1ccc(OC(C(=O)O)C(=O)O)cc1)NC(=O)COCC(=O)O (stereo not given)	53	5	8
CCCCCNC(=O)C(Cc1ccc(C=C(C(=O)O)C(=O)O)cc1)NC(=O)CCC(=O)O (stereo not given)	33	2	52
CCCCCNC(=O)C(Cc1ccc(OC(C(=O)O)C(=O)O)cc1)NC(=O)CC(C)(C)CC(=O)O (stereo not given)	67	6	16
CCCCCNC(=O)C(Cc1ccc(OC(C(=O)OCC)C(=O)OCC)cc1)NC(=O)CCC(=O)O (stereo not given)	1	–	0
CCCCCNC(=O)C(Cc1ccc(OC(C(=O)O)C(=O)O)cc1)NC(=O)CC(=O)O (stereo not given)	74	7	13
CCCCCNC(=O)C(Cc1ccc(OC(=O)CC(=O)O)cc1)NC(=O)CCC(=O)O (stereo not given)	2	–	0
CCCCCNC(=O)C(CCc1ccc(OC(C(=O)O)C(=O)O)cc1)NC(=O)CCC(=O)O (stereo not given)	18	0	10
CCCCCNC(=O)C(Cc1ccc(CC(C(=O)O)C(=O)O)cc1)NC(=O)CCC(=O)O (stereo not given)	34	3	3
CCCCCNC(=O)C(Cc1ccc(OC(C(=O)O)C(=O)O)cc1)NC(=O)[C@H](COc1ccc(Cc2cc(Cl)ccc2Cl)cc1)NC(=O)OC(C)(C)C (stereo not given in full)	85	27	45
CCCCCNC(=O)C(Cc1ccc(OC(C(=O)O)C(=O)O)c(F)c1)NC(=O)CCC(=O)O (stereo not given)	78	4	9
CCCCCNC(=O)C(Cc1ccc(OCC(=O)O)cc1)NC(=O)CCC(=O)O (stereo not given)	14	0	0

SMILES	inhibition [1] [%]	inhibition [2] [%]	inhibition [3] [%]
CCCCCNC(=O)C(Cc1ccc(OC(C(=O)O)C(=O)O)cc1)NC(=O)[C@H](CCC(=O)O)NC(=O)CCC(=O)O (stereo not given in full)	96	10	28
CCCCCCCCCCNC(=O)C(Cc1ccc(OC(C(=O)O)C(=O)O)cc1)NC(=O)CCC(=O)O (stereo not given)	51	4	9
CCCCCNC(=O)C(Cc1ccc(OC(C(=O)O)C(=O)O)c(F)c1F)NC(=O)CCC(=O)O (stereo not given)	85	12	23
CCCCCNC(=O)C(Cc1ccc(OC(C(=O)O)C(=O)O)cc1)NC(=O)[C@H](Cc1ccc(C(=O)c2ccccc2)cc1)NC(=O)OC(C)(C)C (stereo not given in full)	91	24	11
CCCCCNC(=O)C(Cc1ccc(O)c(C(=O)O)c1)NC(=O)CCC(=O)O (stereo not given)	0	0	3
O=C(O)CCC(=O)NC(Cc1ccc(OC(C(=O)O)C(=O)O)cc1)C(=O)NCC1CCCCC1 (stereo not given)	73	5	12
CCCCCNC(=O)C(Cc1ccc(OC(C(=O)O)C(=O)O)cc1)NC(=O)[C@H](CCC(=O)O)NC(=O)OC(C)(C)C (stereo not given in full)	83	11	14
CCCCCNC(=O)C(Cc1ccc(OC(C(=O)O)C(=O)O)cc1)NC(=O)[C@H]1CCCC[C@@H]1C(=O)O (stereo not given in full)	72	7	10
CCCCCNC(=O)C(Cc1ccc(OC(C(=O)O)C(=O)O)cc1)NC(=O)[C@H]1CCCC[C@H]1C(=O)O (stereo not given in full)	62	8	13
CCCCCNC(=O)C(Cc1ccc(OCC(=O)O)c(C(N)=O)c1)NC(=O)CCC(=O)O (stereo not given)	11	0	1
CCCCCNC(=O)C(Cc1ccc(OC(C(=O)O)C(=O)O)cc1)NC(=O)[C@H](Cc1ccc(OC)cc1)NC(=O)OC(C)(C)C (stereo not given in full)	90	30	9
CCCCCNC(=O)C(Cc1ccc(OC(CC(=O)O)C(=O)O)cc1)NC(=O)CCC(=O)O (stereo not given)	34	–	4
CCCCCNC(=O)C(Cc1ccc(O/C(=C/C(=O)O)C(=O)O)cc1)NC(=O)CCC(=O)O (stereo not given)	50	–	5
CCCCCNC(=O)C(Cc1ccc(OC(C(=O)O)C(=O)O)cc1)NC(=O)CCCC(=O)O (stereo not given)	67	7	10
CCCCCNC(=O)C(Cc1ccc(OC(C(=O)O)C(=O)O)cc1)NC(=O)CCC(N)=O (stereo not given)	51	–	–

Continued, values first:

inhibition [1] [%]	inhibition [2] [%]	inhibition [3] [%]	SMILES
63	6	12	O=C(O)CCC(=O)NC(Cc1ccc(OC(C(=O)O)C(=O)O)cc1)C(=O)NCc1ccc2c(c1)OCO2 (stereo not given)
39	1	4	CCCCCNC(=O)[C@@H](Cc1ccc(OC(C(=O)O)C(=O)O)cc1)NC(=O)CCC(=O)O
57	0	10	CC(C)CC(CO)NC(=O)C(Cc1ccc(OC(C(=O)O)C(=O)O)cc1)NC(=O)CCC(=O)O (stereo not given)
23	–	1	O=C(O)CCC(=O)NC(Cc1ccc(OC(C(=O)O)C(=O)O)cc1)C(=O)NCCN1CCCCC1 (stereo not given)
39	–	–	CCCCCNC(=O)C(Cc1ccc(OC(C(=O)O)C(=O)O)cc1)NC(=O)CCC(=O)OCc1ccccc1 (stereo not given)
63	5	17	NS(=O)(=O)c1ccc(CCNC(=O)C(Cc2ccc(OC(C(=O)O)C(=O)O)cc2)NC(=O)CCC(=O)O)cc1 (stereo not given)
61	10	12	O=C(O)CCC(=O)NC(Cc1ccc(OC(C(=O)O)C(=O)O)cc1)C(=O)NCc1cccc2ccccc12 (stereo not given)
66	4	15	O=C(O)CCC(=O)NC(Cc1ccc(OC(C(=O)O)C(=O)O)cc1)C(=O)NCc1ccc(C(F)(F)F)cc1 (stereo not given)
74	5	8	CCCCCCNC(=O)C(Cc1ccc(OC(C(=O)O)C(=O)O)cc1)NC(=O)CCC(=O)O (stereo not given)
63	10	19	CCCCCNC(=O)C(Cc1ccc(OC(C(=O)O)C(=O)O)cc1)NC(=O)c1ccccc1C(=O)O (stereo not given)
54	6	11	CCCCCNC(=O)[C@H](Cc1ccc(OC(C(=O)O)C(=O)O)cc1)NC(=O)[C@@H](Cc1ccc(C(=O)c2ccccc2)cc1)NC(=O)CCC(=O)O
98	22	33	CCCCCNC(=O)C(Cc1ccc(OC(C(=O)O)C(=O)O)cc1)NC(=O)[C@H](Cc1ccc(OC)cc1)NC(=O)CCC(=O)O (stereo not given in full)
98	28	33	CCCCCNC(=O)C(Cc1ccc(OC(C(=O)O)C(=O)O)cc1)NC(=O)[C@H](Cc1ccc(OCc2ccccc2)cc1)NC(=O)CCC(=O)O (stereo not given in full)
90	6	50	CCCCCNC(=O)C(Cc1ccc(OC(C(=O)O)C(=O)O)cc1)NC(=O)[C@H](CC(=O)O)NC(=O)OCc1ccccc1 (stereo not given in full)
43	–	–	O=C(O)CCC(=O)NC(Cc1ccc(OC(C(=O)O)C(=O)O)cc1)C(=O)NCCc1ccc(O)cc1 (stereo not given)
26	3	1	O=C(O)CCC(=O)NC(Cc1ccc(OC(C(=O)O)C(=O)O)cc1)C(=O)NCCCn1ccnc1 (stereo not given)
72	6	12	O=C(O)CCC(=O)NC(Cc1ccc(OC(C(=O)O)C(=O)O)cc1)C(=O)NCCCc1ccccc1 (stereo not given)
57	4	34	O=C(O)CCC(=O)NC(Cc1ccc(OC(C(=O)O)C(=O)O)cc1)C(=O)NCCOc1ccccc1 (stereo not given)
45	11	9	O=C(O)CCC(=O)NC(Cc1ccc(OC(C(=O)O)C(=O)O)cc1)C(=O)NCCC(c1ccccc1)c1ccccc1 (stereo not given)

Source: ChEMBL document CHEMBL1135703, “Synthesis and biological activity of a novel class of small molecular weight peptidomimetic competitive inhibitors of protein tyrosine phosphatase 1B” (2002)
